These results are taken from US20240335385A1, “IONIZABLE AMINE LIPIDS AND LIPID NANOPARTICLES” (Beam Therapeutics Inc., priority 2021, published 2024).

A short description of data set [1]: RNA encapsulation efficiency of LNPs by Ribogreen assay. The format is physicochemical. The note with it: LNP of 47.5% Ionizable Lipid:40% cholesterol:2.5% PEG-2000 DMG:10% DPSC, N/P ratio 4-8. The protocol:
(§1) LNPs were prepared with 47.5% Ionizable Lipid (e.g., a compound provided herein):40% cholesterol:2.5% PEG-2000 DMG:10% DPSC and an N/P ratio range of 4-8. LNPs were formed by microfluidic mixing of the lipid and NA solutions using a Precision Nanosystems NanoAssemblr Spark or Benchtop series Instruments, according to the manufacturer's protocol. A ratio of aqueous to organic solvent of approximately 2:1 or 3:1 was maintained during mixing using differential flow rates. After mixing, LNPs were collected, diluted in phosphate buffer saline (PBS) or Tris-buffered saline (TBS) (approximately 1:1 v/v). Further buffer exchange was conducted using dialysis in PBS or TBS at 4° C. for 4 to 24 hours against a 20 kDa filter. After this initial dialysis, each individual LNP preparation was characterized via dynamic light scattering (DLS) to measure the size (e.g., diameter) and polydispersity. LNPs falling within specific diameter and polydispersity ranges were pooled, and further dialyzed against PBS or TBS at 4° C. for 1 to 4 hours against a 100 kDa dialysis cassette. After the second dialysis, LNPs were sterile filtered using 0.22 μm filter and stored at 4° C. for further use.
RNA concentration and encapsulation efficiency were determined by Ribogreen assay (BioTek Synergy LX plate reader).

A short description of data set [2]: LNP hydrodynamic diameter and polydispersity index by dynamic light scattering (DLS). The format is physicochemical. The note with it: LNP of 47.5% Ionizable Lipid:40% cholesterol:2.5% PEG-2000 DMG:10% DPSC, N/P ratio 4-8. The procedure: as §1
LNP hydrodynamic diameter and polydispersity index (PDI) were measured using high throughput dynamic light scattering (DLS) (Stunner, Unchained Labs). LNPs were diluted 1×TBS or PBS to an appropriate concentration and analyzed.

Molecules are shown by their SMILES.

Take `CC/C=C\CCCCOC(CCC(=O)OCCC(CCOC(=O)CCCCCCC/C=C\C/C=C\CCCCC)OC(=O)OCCCN(CC)CC)OCCCC/C=C\CC` (stereo not drawn) [Example 7-2, 5-((4,4-bis(((Z)-oct-5-en-1-yl)oxy)butanoyl)oxy)-3-(((3-(diethylamino)propoxy)carbonyl)oxy)pentyl (9Z,12Z)-octadeca-9,12-dienoate]: the “Mean Encapsulation Efficiency (%)” value in data set [1] turned out to be 87.2%. Further, in data set [2], the “Mean Diameter (nm)” value stood at 96.4 nm and the “Mean PDI” value was found to be 0.12.

As for `CC/C=C\CCCCOC(CCC(=O)OCCC(CCOC(=O)CCCCCCC/C=C\C/C=C\CCCCC)OC(=O)OCCCN(C)CC)OCCCC/C=C\CC` (stereo not drawn) [Example 7-3, 5-((4,4-bis(((Z)-oct-5-en-1-yl)oxy)butanoyl)oxy)-3-(((3-(ethyl(methyl)amino)propoxy)carbonyl)oxy)pentyl (9Z,12Z)-octadeca-9,12-dienoate], the “Mean Encapsulation Efficiency (%)” value in data set [1] is reported as 86.7%. In data set [2], the “Mean Diameter (nm)” value is reported as 91.0 nm and the “Mean PDI” value was 0.13.

With `CC/C=C\CCCCOC(CCC(=O)OCCC(CCOC(=O)CCCCCCC/C=C\C/C=C\CCCCC)OC(=O)OCCCN(C)C)OCCCC/C=C\CC` (stereo not drawn) [Example 7-4, 5-((4,4-bis(((Z)-oct-5-en-1-yl)oxy)butanoyl)oxy)-3-(((3-(dimethylamino)propoxy)carbonyl)oxy)pentyl (9Z,12Z)-octadeca-9,12-dienoate], the “Mean Encapsulation Efficiency (%)” value in data set [1] was 86.3%. In data set [2], the “Mean Diameter (nm)” value was found to be 88.8 nm and the “Mean PDI” value stood at 0.13.

As for `CC/C=C\CCCCOC(CCC(=O)OCCC(CCOC(=O)CCC(OCCCC/C=C\CC)OCCCC/C=C\CC)OC(=O)OCCCN(CC)CC)OCCCC/C=C\CC` [Example 7-7, 3-(((3-(diethylamino)propoxy)carbonyl)oxy)pentane-1,5-diyl bis(4,4-bis(((Z)-oct-5-en-1-yl)oxy)butanoate)], the “Mean Encapsulation Efficiency (%)” value in data set [1] was 91.3%. Further, in data set [2], the “Mean Diameter (nm)” value is recorded as 99.7 nm and the “Mean PDI” value is given as 0.17.

As to `CC/C=C\CCCCOC(CCC(=O)OCCC(CCOC(=O)CCC(OCCCC/C=C\CC)OCCCC/C=C\CC)OC(=O)OCCCN(C)CC)OCCCC/C=C\CC` [Example 7-8, 3-(((3-(ethyl(methyl)amino)propoxy)carbonyl)oxy)pentane-1,5-diyl bis(4,4-bis(((Z)-oct-5-en-1-yl)oxy)butanoate)], the “Mean Encapsulation Efficiency (%)” value in data set [1] is 89.9%. In data set [2], the “Mean Diameter (nm)” value is on record as 110.4 nm and the “Mean PDI” value amounted to 0.09.

Take `CC/C=C\CCCCOC(CCC(=O)OCCC(CCOC(=O)CCC(OCCCC/C=C\CC)OCCCC/C=C\CC)OC(=O)OCCCN(C)C)OCCCC/C=C\CC` [Example 7-9, 3-(((3-(dimethylamino)propoxy)carbonyl)oxy)pentane-1,5-diyl bis(4,4-bis(((Z)-oct-5-en-1-yl)oxy)butanoate)]: the “Mean Encapsulation Efficiency (%)” value in data set [1] was found to be 89.0%. In addition, in data set [2], the “Mean Diameter (nm)” value amounted to 92.9 nm and the “Mean PDI” value worked out at 0.13.

With `CCCCC/C=C\C/C=C\CCCCCCCC(=O)OCCC(CCOC(=O)CCC(OCCCCCCCC)OCCCCCCCC)OC(=O)OCC1CCCN(CC)C1` (stereo not drawn) [Example 7-11, 5-((4,4-bis(octyloxy)butanoyl)oxy)-3-((((1-ethylpiperidin-3-yl)methoxy)carbonyl)oxy)pentyl (9Z,12Z)-octadeca-9,12-dienoate], the “Mean Encapsulation Efficiency (%)” value in data set [1] was 86.3%. Also, in data set [2], the “Mean Diameter (nm)” value was determined as 76.5 nm and the “Mean PDI” value worked out at 0.13.

Turning to `CCCCC/C=C\C/C=C\CCCCCCCC(=O)OCCC(CCOC(=O)CCC(OCCCCCCCC)OCCCCCCCC)OC(=O)OCCCN(CC)CC` (stereo not drawn) [Example 7-12, 5-((4,4-bis(octyloxy)butanoyl)oxy)-3-(((3-(diethylamino)propoxy)carbonyl)oxy)pentyl (9Z,12Z)-octadeca-9,12-dienoate], the “Mean Encapsulation Efficiency (%)” value in data set [1] was 86.5%. Further, in data set [2], the “Mean Diameter (nm)” value turned out to be 85.0 nm and the “Mean PDI” value is reported as 0.16.

As for `CCCCC/C=C\C/C=C\CCCCCCCC(=O)OCCC(CCOC(=O)CCC(OCCCCCCCC)OCCCCCCCC)OC(=O)OCCCN(C)CC` (stereo not drawn) [Example 7-13, 5-((4,4-bis(octyloxy)butanoyl)oxy)-3-(((3-(ethyl(methyl)amino)propoxy)carbonyl)oxy)pentyl (9Z,12Z)-octadeca-9,12-dienoate], the “Mean Encapsulation Efficiency (%)” value in data set [1] was determined as 86.1%. Besides, in data set [2], the “Mean Diameter (nm)” value was 86.0 nm and the “Mean PDI” value came to 0.15.

As to `CCCCC/C=C\C/C=C\CCCCCCCC(=O)OCCC(CCOC(=O)CCC(OCCCCCCCC)OCCCCCCCC)OC(=O)OCCCN(C)C` (stereo not drawn) [Example 7-14, 5-((4,4-bis(octyloxy)butanoyl)oxy)-3-(((3-(dimethylamino)propoxy)carbonyl)oxy)pentyl (9Z,12Z)-octadeca-9,12-dienoate], the “Mean Encapsulation Efficiency (%)” value in data set [1] amounted to 87.2%. In addition, in data set [2], the “Mean Diameter (nm)” value was determined as 84.3 nm and the “Mean PDI” value is 0.18.

On to `CCCCC/C=C\C/C=C\CCCCCCCC(=O)OCCC(CCOC(=O)CCC(OCCCCCCCC)OCCCCCCCC)OC(=O)CCCN1CCCC1` (stereo not drawn) [Example 7-15, 5-((4,4-bis(octyloxy)butanoyl)oxy)-3-((4-(pyrrolidin-1-yl)butanoyl)oxy)pentyl (9Z,12Z)-octadeca-9,12-dienoate], for which, in data set [1], the “Mean Encapsulation Efficiency (%)” value was found to be 87.0%. Further, in data set [2], the “Mean Diameter (nm)” value was 80.8 nm and the “Mean PDI” value is 0.16.

In the case of `CCCCCCCCOC(CCC(=O)OCCC(CCOC(=O)CCC(OCCCCCCCC)OCCCCCCCC)OC(=O)OCC1CCCN(CC)C1)OCCCCCCCC` (stereo not drawn) [Example 7-16, 3-((((1-ethylpiperidin-3-yl)methoxy)carbonyl)oxy)pentane-1,5-diyl bis(4,4-bis(octyloxy)butanoate)], in data set [1], the “Mean Encapsulation Efficiency (%)” value is listed as 72.6%. Besides, in data set [2], the “Mean Diameter (nm)” value came out at 80.0 nm and the “Mean PDI” value was 0.16.

In the case of `CCCCCCCCOC(CCC(=O)OCCC(CCOC(=O)CCC(OCCCCCCCC)OCCCCCCCC)OC(=O)OCCCN(C)CC)OCCCCCCCC` [Example 7-18, 3-(((3-(ethyl(methyl)amino)propoxy)carbonyl)oxy)pentane-1,5-diyl bis(4,4-bis(octyloxy)butanoate)], in data set [1], the “Mean Encapsulation Efficiency (%)” value was found to be 90.0%. Further, in data set [2], the “Mean Diameter (nm)” value worked out at 76.7 nm and the “Mean PDI” value stood at 0.16.

For `CC/C=C\CCCCOC(CCC(=O)OCCCCC(CCCCOC(=O)CCC(OCCCC/C=C\CC)OCCCC/C=C\CC)OC(=O)OCC1CCCN(CC)C1)OCCCC/C=C\CC` (stereo not drawn) [Example 7-34, 5-((((1-ethylpiperidin-3-yl)methoxy)carbonyl)oxy)nonane-1,9-diyl bis(4,4-bis(((Z)-oct-5-en-1-yl)oxy)butanoate)], in data set [1], the “Mean Encapsulation Efficiency (%)” value is listed as 85.1%. In data set [2], the “Mean Diameter (nm)” value was 94.4 nm and the “Mean PDI” value turned out to be 0.12.
